{"source": "patent US20070032460A1", "about": "“Use of voacamine and related compounds in the treatment of malaria” (priority 2005, published 2007)", "key": {"[1]": {"tested_on": "CQ-sensitive (D6) strain of P. falciparum", "type": "cell-based"}, "[2]": {"conditions": "doses of 2000 and 5000 mg/day; cited from earlier work"}, "[3]": {"tested_on": "Plasmodium falciparum", "conditions": "verapamil alone, without chloroquine; cited from earlier work"}, "[4]": {"conditions": "Plasmodium falciparum, D6, chloroquine-sensitive strain of P. falciparum, in vitro, Table V, read-out: IC50 (10^−7 M) S"}, "[5]": {"conditions": "chloroquine-sensitive strain of P. falciparum, in vitro, Table V, read-out: IC50 (10^−7 M) S"}}, "note": "Read-outs that look alike come from different tables or passages of the source."}
{"compound": "CC[C@H]1C[C@@H]2CN3CCc4c([nH]c5ccccc45)[C@](C(=O)OC)(C2)[C@H]13", "note": "[COR, Coronaridine]", "values": [{"measurement": "IC50", "setting": "[1]; [4]", "value": 500, "unit": "nM"}]}
{"compound": "CCN(CC)CCCC(C)Nc1ccnc2cc(Cl)ccc12", "note": "(centres unmarked) [CQ, chloroquine, reference compound]", "values": [{"measurement": "IC50", "setting": "[1]; Plasmodium falciparum, D6, read-out: IC50, single drug", "value": "28.5 ± 3.5", "unit": "nM"}, {"measurement": "IC50", "setting": "[1]; Plasmodium falciparum, D6, read-out: IC50 of each drug in combination VOA (1.0 μM) CQ (0.3 μM)", "value": "15.9 ± 2.7", "unit": "nM"}, {"measurement": "IC50", "setting": "[1]; Plasmodium falciparum, D6, read-out: IC50 of each drug in combination VOA (2.0 μM) CQ (0.2 μM)", "value": "13.5 ± 2.9", "unit": "nM"}, {"measurement": "IC50", "setting": "[1]; Plasmodium falciparum, D6, read-out: IC50 of each drug in combination VOA (3.0 μM) CQ (0.1 μM)", "value": "8.2 ± 1.5", "unit": "nM"}]}
{"compound": "C[C@@H]1CC[C@H]2[C@@H](C)C(=O)O[C@@H]3O[C@@]4(C)CC[C@@H]1[C@]32OO4", "note": "[QHS, qinghaosu, reference compound]", "values": [{"measurement": "IC50", "setting": "[1]; S strain (D6), VOA/QHS ratio 10:1, read-out: IC50 of each drug in combination VOA (2.0 μM) QHS (0.2 μM)", "value": "14.6 ± 0.8", "unit": "nM"}, {"measurement": "IC50", "setting": "[1]; S strain (D6), VOA/QHS ratio 10:3, read-out: IC50 of each drug in combination VOA (1.0 μM) QHS (0.3 μM)", "value": "25.9 ± 2.5", "unit": "nM"}, {"measurement": "IC50", "setting": "[1]; S strain (D6), VOA/QHS ratio 30:1, read-out: IC50 of each drug in combination VOA (3.0 μM) QHS (0.1 μM)", "value": "9.7 ± 2.3", "unit": "nM"}, {"measurement": "IC50", "setting": "[1]; S strain (D6), drug alone, Table II, mean ± S.D., three experiments, read-out: IC50, single drug", "value": "38.3 ± 4.7", "unit": "nM"}]}
{"compound": "CC=C1CN(C)C2Cc3c([nH]c4ccccc34)C(c3cc4[nH]c5c(c4cc3OC)CCN3CC4CC(CC)C3C5(C(=O)OC)C4)CC1C2C(=O)OC", "note": "(centres unmarked) [VOA, Voacamine]", "values": [{"measurement": "IC50", "setting": "[1]; Plasmodium falciparum, D6, read-out: IC50 (10^−7 M) S, chloroquine-sensitive strain of P. falciparum, in vitro, Table V", "value": 240, "unit": "nM"}, {"measurement": "IC50", "setting": "[1]; Plasmodium falciparum, D6, read-out: IC50, single drug, S strain (D6), drug alone, Table 1, mean ± S.D., three experiments", "value": "238 ± 23.7", "unit": "nM"}, {"measurement": "IC50", "setting": "[1]; Plasmodium falciparum, D6, read-out: IC50, single drug, S strain (D6), drug alone, Table II, mean ± S.D., three experiments", "value": "298 ± 59.8", "unit": "nM"}, {"measurement": "IC50", "setting": "[1]; Plasmodium falciparum, D6, read-out: IC50 of each drug in combination VOA (1.0 μM) CQ (0.3 μM), S strain (D6), VOA/CQ ratio 10:3", "value": "56.9 ± 8.2", "unit": "nM"}, {"measurement": "IC50", "setting": "[1]; Plasmodium falciparum, D6, read-out: IC50 of each drug in combination VOA (1.0 μM) QHS (0.3 μM), S strain (D6), VOA/QHS ratio 10:3", "value": "87.2 ± 9.5", "unit": "nM"}, {"measurement": "IC50", "setting": "[1]; Plasmodium falciparum, D6, read-out: IC50 of each drug in combination VOA (2.0 μM) CQ (0.2 μM), S strain (D6), VOA/CQ ratio 10:1", "value": "114 ± 25.1", "unit": "nM"}, {"measurement": "IC50", "setting": "[1]; Plasmodium falciparum, D6, read-out: IC50 of each drug in combination VOA (2.0 μM) QHS (0.2 μM), S strain (D6), VOA/QHS ratio 10:1", "value": "114 ± 5.6", "unit": "nM"}, {"measurement": "IC50", "setting": "[1]; Plasmodium falciparum, D6, read-out: IC50 of each drug in combination VOA (3.0 μM) CQ (0.1 μM), S strain (D6), VOA/CQ ratio 30:1", "value": "223 ± 35.8", "unit": "nM"}, {"measurement": "IC50", "setting": "[1]; Plasmodium falciparum, D6, read-out: IC50 of each drug in combination VOA (3.0 μM) QHS (0.1 μM), S strain (D6), VOA/QHS ratio 30:1", "value": "240 ± 45.3", "unit": "nM"}, {"measurement": "toxicity in prior studies", "setting": "[2]", "value": "minimal toxicity"}]}
{"compound": "C/C=C1/CN(C)[C@H]2Cc3c([nH]c4ccccc34)C(=O)C[C@H]1[C@@H]2C(=O)OC", "note": "[VOB, Vobasine]", "values": [{"measurement": "IC50", "setting": "[1]; [4]", "value": 470, "unit": "nM"}]}
{"compound": "COc1ccc(CCN(C)CCCC(C#N)(c2ccc(OC)c(OC)c2)C(C)C)cc1OC", "note": "(centres unmarked) [verapamil]", "values": [{"measurement": "effect on malaria, drug alone", "setting": "[3]", "value": "no effect"}]}
{"compound": "Decarbomethoxyvoacamine [DCV]", "values": [{"measurement": "IC50", "setting": "[1]; [5]", "value": 490, "unit": "nM"}]}
{"compound": "Ervahanine", "values": [{"measurement": "IC50", "setting": "[1]; [5]", "value": 680, "unit": "nM"}]}
{"compound": "N6Demethylvoacamine [NDV]", "values": [{"measurement": "IC50", "setting": "[1]; [5]", "value": 470, "unit": "nM"}]}
{"compound": "Tabernamine", "values": [{"measurement": "IC50", "setting": "[1]; [5]", "value": 650, "unit": "nM"}]}
{"compound": "Voacamidine [VDN]", "values": [{"measurement": "IC50", "setting": "[1]; [5]", "value": 510, "unit": "nM"}]}
